In PubChem BioAssay (NCI):
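Dose response: 5 concentrations. Exposure: 48 h. Format: 96-well plates. Endpoint: linear interpolation; highest concentration if not reached. TGI is the concentration that stops growth completely.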

Experiments:
Assay in all cases: growth of human tumour cells (NCI), 48 h
MDA-N = tested on: MDA-N
NCI/ADR-RES ovarian = tested on: NCI/ADR-RES ovarian
IGROV1 ovarian = tested on: IGROV1 ovarian
K-562 leukemia = tested on: K-562 leukemia
ACHN renal = tested on: ACHN renal
NCI-H460 lung = tested on: NCI-H460 lung
LOX IMVI melanoma = tested on: LOX IMVI melanoma
KM12 colon = tested on: KM12 colon
MCF7 breast = tested on: MCF7 breast
MDA-MB-231 breast = tested on: MDA-MB-231 breast
SN12C renal = tested on: SN12C renal
SF-539 CNS = tested on: SF-539 CNS
HOP-92 NSCLC = tested on: HOP-92 NSCLC
M14 melanoma = tested on: M14 melanoma
A498 renal = tested on: A498 renal
HOP-62 NSCLC = tested on: HOP-62 NSCLC
HCT-116 colon = tested on: HCT-116 colon
RPMI-8226 leukemia = tested on: RPMI-8226 leukemia
SK-MEL-5 melanoma = tested on: SK-MEL-5 melanoma
DU-145 prostate = tested on: DU-145 prostate
MOLT-4 leukemia = tested on: MOLT-4 leukemia
NCI-H522 lung = tested on: NCI-H522 lung
HS 578T breast = tested on: HS 578T breast
NCI-H226 lung = tested on: NCI-H226 lung
OVCAR-5 ovarian = tested on: OVCAR-5 ovarian
SK-OV-3 ovarian = tested on: SK-OV-3 ovarian
SW-620 colon = tested on: SW-620 colon
786-0 renal = tested on: 786-0 renal
UACC-257 melanoma = tested on: UACC-257 melanoma
COLO 205 colon = tested on: COLO 205 colon
OVCAR-8 ovarian = tested on: OVCAR-8 ovarian
T-47D breast = tested on: T-47D breast
UACC-62 melanoma = tested on: UACC-62 melanoma
UO-31 renal = tested on: UO-31 renal
SR leukemia = tested on: SR leukemia
CCRF-CEM leukemia = tested on: CCRF-CEM leukemia
MDA-MB-435 = tested on: MDA-MB-435
RXF 393 renal = tested on: RXF 393 renal
CAKI-1 renal = tested on: CAKI-1 renal
EKVX NSCLC = tested on: EKVX NSCLC
HT29 colon = tested on: HT29 colon
NCI-H23 lung = tested on: NCI-H23 lung
SF-295 CNS = tested on: SF-295 CNS
HCT-15 colon = tested on: HCT-15 colon
SNB-75 CNS = tested on: SNB-75 CNS
TK-10 renal = tested on: TK-10 renal
U251 CNS = tested on: U251 CNS
HCC-2998 colon = tested on: HCC-2998 colon
OVCAR-3 ovarian = tested on: OVCAR-3 ovarian
SF-268 CNS = tested on: SF-268 CNS
A549 NSCLC = tested on: A549 NSCLC
MALME-3M melanoma = tested on: MALME-3M melanoma
SK-MEL-28 melanoma = tested on: SK-MEL-28 melanoma
SNB-19 CNS = tested on: SNB-19 CNS
BT-549 breast = tested on: BT-549 breast
OVCAR-4 ovarian = tested on: OVCAR-4 ovarian

Q: Which TGI (MDA-N) does the source give for `CCOC(=O)[C@@H]1ON2O[C@@H](OC3CCCCC3c3ccccc3)C[C@H]3OC(=O)[C@@H]1C32` (stereo not given in full) here?
A: Its TGI is > 100 µM.

Q: And the TGI (NCI/ADR-RES ovarian)?
A: Its TGI is > 100 µM.

Q: And the TGI (IGROV1 ovarian)?
A: The TGI was > 100 µM.

Q: And the TGI (K-562 leukemia)?
A: The TGI was > 100 µM.

Q: And the TGI (ACHN renal)?
A: The TGI was > 100 µM.

Q: And the TGI (NCI-H460 lung)?
A: The TGI was > 100 µM.

Q: What about the TGI (LOX IMVI melanoma) of the same compound?
A: Its TGI is > 100 µM.

Q: What about the TGI (KM12 colon) of the same compound?
A: Its TGI is > 100 µM.

Q: And the TGI (MCF7 breast)?
A: Its TGI is > 100 µM.

Q: And the TGI (MDA-MB-231 breast)?
A: Its TGI is > 100 µM.

Q: And the TGI (SN12C renal)?
A: The TGI was > 100 µM.

Q: What about the TGI (SF-539 CNS) of the same compound?
A: The TGI was > 100 µM.

Q: And the TGI (HOP-92 NSCLC)?
A: The TGI was > 100 µM.

Q: What about the TGI (M14 melanoma) of the same compound?
A: The TGI was > 100 µM.

Q: What about the TGI (A498 renal) of the same compound?
A: Its TGI is > 100 µM.

Q: And the TGI (HOP-62 NSCLC)?
A: The TGI was > 100 µM.

Q: And the TGI (HCT-116 colon)?
A: The TGI was > 100 µM.

Q: What about the TGI (RPMI-8226 leukemia) of the same compound?
A: The TGI was > 100 µM.

Q: What about the TGI (SK-MEL-5 melanoma) of the same compound?
A: Its TGI is > 100 µM.

Q: And the TGI (DU-145 prostate)?
A: The TGI was > 100 µM.

Q: And the TGI (MOLT-4 leukemia)?
A: Its TGI is > 100 µM.

Q: What about the TGI (NCI-H522 lung) of the same compound?
A: The TGI was > 100 µM.

Q: And the TGI (HS 578T breast)?
A: The TGI was > 100 µM.

Q: What about the TGI (NCI-H226 lung) of the same compound?
A: The TGI was > 100 µM.

Q: And the TGI (OVCAR-5 ovarian)?
A: The TGI was > 100 µM.

Q: And the TGI (SK-OV-3 ovarian)?
A: Its TGI is > 100 µM.

Q: What about the TGI (SW-620 colon) of the same compound?
A: Its TGI is > 100 µM.

Q: What about the TGI (786-0 renal) of the same compound?
A: The TGI was > 100 µM.

Q: What about the TGI (UACC-257 melanoma) of the same compound?
A: The TGI was > 100 µM.

Q: What about the TGI (COLO 205 colon) of the same compound?
A: The TGI was > 100 µM.

Q: What about the TGI (OVCAR-8 ovarian) of the same compound?
A: Its TGI is > 100 µM.

Q: And the TGI (T-47D breast)?
A: Its TGI is > 100 µM.

Q: What about the TGI (UACC-62 melanoma) of the same compound?
A: The TGI was > 100 µM.

Q: What about the TGI (UO-31 renal) of the same compound?
A: Its TGI is > 100 µM.

Q: And the TGI (SR leukemia)?
A: Its TGI is > 100 µM.

Q: What about the TGI (CCRF-CEM leukemia) of the same compound?
A: The TGI was 21.9 µM.

Q: What about the TGI (MDA-MB-435) of the same compound?
A: Its TGI is > 100 µM.

Q: What about the TGI (RXF 393 renal) of the same compound?
A: The TGI was > 100 µM.

Q: And the TGI (CAKI-1 renal)?
A: The TGI was > 100 µM.

Q: And the TGI (EKVX NSCLC)?
A: The TGI was > 100 µM.

Q: What about the TGI (HT29 colon) of the same compound?
A: The TGI was > 100 µM.

Q: And the TGI (NCI-H23 lung)?
A: The TGI was > 100 µM.

Q: And the TGI (SF-295 CNS)?
A: The TGI was > 100 µM.

Q: And the TGI (HCT-15 colon)?
A: Its TGI is > 100 µM.

Q: What about the TGI (SNB-75 CNS) of the same compound?
A: The TGI was > 100 µM.

Q: What about the TGI (TK-10 renal) of the same compound?
A: Its TGI is > 100 µM.

Q: What about the TGI (U251 CNS) of the same compound?
A: The TGI was > 100 µM.

Q: What about the TGI (HCC-2998 colon) of the same compound?
A: Its TGI is > 100 µM.

Q: What about the TGI (OVCAR-3 ovarian) of the same compound?
A: The TGI was > 100 µM.

Q: What about the TGI (SF-268 CNS) of the same compound?
A: The TGI was > 100 µM.

Q: And the TGI (A549 NSCLC)?
A: The TGI was > 100 µM.

Q: Which results are given for `CCCCCCCCCC(=O)NC(CCC(=O)N(CCNC(=O)c1nc(-c2ccccc2)oc1-c1ccccc1)Cc1ccccc1)C(=O)O` (stereo not given)?
A: TGI (MDA-N): 36.4 µM; TGI (NCI/ADR-RES ovarian): 33.3 µM; TGI (IGROV1 ovarian): 39.8 µM; TGI (ACHN renal): 38 µM; TGI (NCI-H460 lung): > 100 µM; TGI (LOX IMVI melanoma): 35.9 µM; TGI (KM12 colon): 46.6 µM; TGI (MDA-MB-231 breast): 40.6 µM; TGI (SN12C renal): 37.6 µM; TGI (SF-539 CNS): 41.7 µM; TGI (HOP-92 NSCLC): 34.8 µM; TGI (MALME-3M melanoma): 34.8 µM; TGI (M14 melanoma): 28.3 µM; TGI (A498 renal): 39.7 µM; TGI (HOP-62 NSCLC): 30.5 µM; TGI (HCT-116 colon): 32.5 µM; TGI (RPMI-8226 leukemia): 79 µM; TGI (SK-MEL-28 melanoma): 37.9 µM; TGI (SK-MEL-5 melanoma): 29.7 µM; TGI (DU-145 prostate): 43.7 µM; TGI (MOLT-4 leukemia): > 100 µM; TGI (NCI-H522 lung): 34.3 µM; TGI (NCI-H226 lung): 55.5 µM; TGI (OVCAR-5 ovarian): 31.7 µM; TGI (SK-OV-3 ovarian): 30.7 µM; TGI (SW-620 colon): 41.8 µM; TGI (786-0 renal): 32 µM; TGI (UACC-257 melanoma): 54.7 µM; TGI (COLO 205 colon): 36.8 µM; TGI (OVCAR-8 ovarian): 35.5 µM; TGI (T-47D breast): 47.7 µM; TGI (UO-31 renal): 28.5 µM; TGI (MDA-MB-435): 38.3 µM; TGI (SNB-19 CNS): 31.8 µM; TGI (RXF 393 renal): 36.8 µM; TGI (CAKI-1 renal): 31.2 µM; TGI (EKVX NSCLC): 35.1 µM; TGI (BT-549 breast): 33.5 µM; TGI (HT29 colon): 32.3 µM; TGI (NCI-H23 lung): 33.9 µM; TGI (SF-295 CNS): 32.8 µM; TGI (HCT-15 colon): 29.6 µM; TGI (SNB-75 CNS): 29.6 µM; TGI (TK-10 renal): 53.6 µM; TGI (U251 CNS): 35.8 µM; TGI (OVCAR-4 ovarian): 75.2 µM; TGI (OVCAR-3 ovarian): 30.1 µM; TGI (SF-268 CNS): 34.6 µM; TGI (A549 NSCLC): 31.9 µM
